From patent US11179397B2, “Imidazopyrimidine derivatives” (Gilead Sciences, Inc., priority 2018, dated 2021)
pEC50, pIC50: −log10 of the molar value. Like-named read-outs stand apart in the source and are kept apart here.

Key:
[1] = biological target: SHP-2 full length protein (Homo sapiens (Human), UniProt Q06124); assay: SHP-2 biochemical DiFMUP pseudosubstrate-fluorogenic assay; settings: 0.2 nM SHP-2, 1 μM IRS-1 activator peptide, 50 μM DiFMUP; read-out: SHP2 IC50
Protocol: SHP-2 Biochemical Assay Materials Recombinant SHP-2 full length protein was generated in house. SHP-2 protein tyrosine phosphatase (PTP) domain protein (Catalog number SPR0217-20 ug), NaCl (Catalog number S6546-1L), and KCl (Catalog number 60142-500 mL) were purchased from Sigma-Aldrich (St. Louis, Mo.). IRS-1_[…](dPEG8)[…] peptide […]) was custom made by AnaSpec (Fremont, Calif.). DiFMUP substrate (Catalog number D6567), EDTA (Catalog number E177-500 mL), DTT (Catalog number P2325), and 384-well black polystyrene non-binding surface (Catalog number 3820) were purchased from Fisher Scientific (Hanover Park, Ill.). HEPES (Catalog number 15630-080) was purchased from Life Technologies (Pleasanton, Calif.), and Tween-20 (Catalog number 95059-250) was purchased from VWR (Radnor, Pa.). Method Inhibition of SHP-2 activity by small molecule inhibitors was monitored by a biochemical DiFMUP pseudosubstrate-fluorogenic assay. […] The reaction mix was added to the 384-well non-binding plate which had been pre-spotted with 1:3 serial diluted compounds from 10,000-0.005 nM, and incubated at room temperature for 90 min. DiFMUP substrate at final concentration of 50 μM was then added to the wells and incubated for additional 30 min at room temperature. The final reaction volume was 20 μl/well. […] The inhibitor dose response curves were generated using normalized IC50 regression curve fitting by in house dose response analysis tools. The wells with DMSO vehicle were used as controls (100% signal). The percent (%) control of SHP-2 compound was calculated as: (Compound well fluorescence counts/DMSO fluorescence counts)×100%.

NCI-H358 cells = assay: NCI-H358 3D tumor spheroid growth inhibition; format: cell-based; settings: 3D spheroids, 7 days, 3D CellTiter Glo, cellular IC50 designated EC50, read-out: H358 EC50
Description: SHP-2 Cell Based Assay: […] Materials NCI-H358 cell line was purchased from [NT] number ATCC CRL-5807) (Manassas, Va.). RPMI-1640 (Catalog number 10-040-CM) was from Corning Cellgro (Manassas, Va.), Fetal Bovine Serum (FBS) (Catalog number SH30071.03) was from HyClone (Logan, Utanh), and 100× Penicillin/Streptomycin/L-Glutamine stock (Catalog no. 30-009-CI) and 384-well ULA plates (Catalog number 3830) were from Corning (Fremont, Calif.). Method […] At the day of assay, the cells were trypsinized and seeded at 1000 cells/70 μl/well in 384-well ULA plates and incubated at 37° C. incubator with 5% CO2 to allow spheroids to form. […] The plates were incubated for additional 7 days. Then 35 μl of medium from each well was removed, and replaced with 35 μl of 3D CellTiter Glo reagent from Promega. The wells were mixed by pipetting up and down with Biomek FX for 15 times to induce cell lysis and the plates were incubated at room temperature for additional 10 min to stabilize luminescent signal. The luminescence was then read by Envision. The inhibitor dose response curves were generated using normalized cellular IC50 (designated as EC50 in all FIGURES to distinguish from biochemical IC50s) by in house dose response analyses tools. The wells with DMSO vehicle were used as negative controls (0% inhibition). The % inhibition of SHP-2 compounds was calculated as: 100-[(Compound well luminescence counts/DMSO luminescence counts)×100%].

SHP-2 full length protein, sequence (Q06124 whole entry): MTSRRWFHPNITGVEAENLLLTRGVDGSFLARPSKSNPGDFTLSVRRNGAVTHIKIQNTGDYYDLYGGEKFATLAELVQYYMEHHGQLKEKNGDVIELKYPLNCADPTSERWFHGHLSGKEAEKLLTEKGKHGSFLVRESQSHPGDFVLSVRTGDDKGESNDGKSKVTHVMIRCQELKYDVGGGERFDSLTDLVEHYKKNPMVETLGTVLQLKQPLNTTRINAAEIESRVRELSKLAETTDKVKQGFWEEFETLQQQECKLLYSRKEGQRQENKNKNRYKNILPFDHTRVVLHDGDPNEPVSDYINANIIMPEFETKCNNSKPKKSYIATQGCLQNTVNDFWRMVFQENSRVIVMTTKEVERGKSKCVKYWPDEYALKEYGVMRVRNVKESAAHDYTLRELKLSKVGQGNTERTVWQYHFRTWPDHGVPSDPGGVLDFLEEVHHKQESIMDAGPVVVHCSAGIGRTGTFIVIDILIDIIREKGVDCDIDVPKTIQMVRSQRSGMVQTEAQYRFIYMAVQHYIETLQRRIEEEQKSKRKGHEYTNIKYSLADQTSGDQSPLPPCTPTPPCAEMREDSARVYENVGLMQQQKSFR

| SMILES | pIC50 [1] | pEC50 (NCI-H358 cells) | pEC50 (NCI-H358 cells; Homo sapiens, NCI-H358, 168 h) |
| --- | --- | --- | --- |
| Cc1nc(N2CCC3(CCC[C@H]3N)CC2)n2ccnc2c1-c1cccc(Cl)c1Cl (single isomer, unassigned) [Example 10] | 7.28 | 6.01 |  |
| Cc1nc(N2CCC3(CCC[C@H]3N)CC2)n2ccnc2c1-c1cccc(Cl)c1Cl (single isomer, unassigned) [Example 11] | 8.44 | 7.22 |  |
| Cc1nc(N2CCC3(CC2)CO[C@@H](C)[C@H]3N)n2ccnc2c1-c1cccc(Cl)c1Cl [Example 1, (3S,4S)-8-(8-(2,3-dichlorophenyl)-7-methylimidazo[1,2-c]pyrimidin-5-yl)-3-methyl-2-oxa-8-azaspiro[4.5]decan-4-amine] | 8.55 |  | 7.23 |
| Cc1nc(N2CCC3(CCC[C@H]3N)CC2)n2ccnc2c1-c1cccc2[nH]ccc12 [Example 2, (R)-8-(8-(1H-indol-4-yl)-7-methylimidazo[1,2-c]pyrimidin-5-yl)-8-azaspiro[4.5]decan-1-amine] | 7.33 |  | 6.23 |
| Cc1nc(N2CCC3(CCC[C@H]3N)CC2)n2ccnc2c1-c1ccccc1 [Example 5, (R)-8-(7-methyl-8-phenylimidazo[1,2-c]pyrimidin-5-yl)-8-azaspiro[4.5]decan-1-amine] | 7.05 |  | 6.17 |
| Cc1nc(N2CCC3(CCC[C@H]3N)CC2)n2ccnc2c1-c1cccc(C(F)(F)F)c1 [Example 7, (R)-8-(7-methyl-8-(3-(trifluoromethyl)phenyl)imidazo[1,2-c]pyrimidin-5-yl)-8-azaspiro[4.5]decan-1-amine] | 5.89 |  | < 4.90 |
| Cc1nc(N2CCC3(CCC[C@H]3N)CC2)n2ccnc2c1-c1cccc(Cl)c1Cl [Example 9, (R)-8-(8-(2,3-dichlorophenyl)-7-methylimidazo[1,2-c]pyrimidin-5-yl)-8-azaspiro[4.5]decan-1-amine] | 8.39 |  | 6.92 |
| Cc1nc(N2CCC3(CCC[C@H]3N)CC2)n2ccnc2c1-c1sccc1Cl [Example 12, (R)-8-(8-(3-chlorothiophen-2-yl)-7-methylimidazo[1,2-c]pyrimidin-5-yl)-8-azaspiro[4.5]decan-1-amine] | 7.05 |  | 6.38 |
| Cc1nc(N2CCC3(CCC[C@H]3N)CC2)n2ccnc2c1-c1cnn(C)c1C [Example 13, (R)-8-(8-(1,5-dimethyl-1H-pyrazol-4-yl)-7-methylimidazo[1,2-c]pyrimidin-5-yl)-8-azaspiro[4.5]decan-1-amine] | 6.00 |  | 5.48 |
| Cc1nc(N2CCC3(CCC[C@H]3N)CC2)n2ccnc2c1-c1cnc2ccccn12 [Example 15, (R)-8-(8-(imidazo[1,2-a]pyridin-3-yl)-7-methylimidazo[1,2-c]pyrimidin-5-yl)-8-azaspiro[4.5]decan-1-amine] | 6.46 |  | 5.49 |
| Cc1nc(N2CCC3(CCC[C@H]3N)CC2)n2ccnc2c1Sc1ccnc(N)c1Cl [Example 18, (R)-8-(8-((2-amino-3-chloropyridin-4-yl)thio)-7-methylimidazo[1,2-c]pyrimidin-5-yl)-8-azaspiro[4.5]decan-1-amine] | 8.25 |  | 7.12 |
| Cc1nc(N2CCC3(CCC[C@H]3N)CC2)n2ccnc2c1-c1cccc(Cl)c1 [Example 23, (R)-8-(8-(3-chlorophenyl)-7-methylimidazo[1,2-c]pyrimidin-5-yl)-8-azaspiro[4.5]decan-1-amine] | 6.80 |  | 5.82 |
| Cc1nc(N2CCC3(CCC[C@H]3N)CC2)n2ccnc2c1-c1ccc(Cl)c(Cl)c1 [Example 25, (R)-8-(8-(3,4-dichlorophenyl)-7-methylimidazo[1,2-c]pyrimidin-5-yl)-8-azaspiro[4.5]decan-1-amine] | 7.02 |  | 5.82 |
| Cc1nc(N2CCC3(CCC[C@H]3N)CC2)n2ccnc2c1-c1ccc(Cl)cc1Cl [Example 26, (R)-8-(8-(2,4-dichlorophenyl)-7-methylimidazo[1,2-c]pyrimidin-5-yl)-8-azaspiro[4.5]decan-1-amine] | 7.60 |  | 6.44 |
| Cc1nc(N2CCC3(CCC[C@H]3N)CC2)n2ccnc2c1-c1ccnc(F)c1Cl [Example 28, (R)-8-(8-(3-chloro-2-fluoropyridin-4-yl)-7-methylimidazo[1,2-c]pyrimidin-5-yl)-8-azaspiro[4.5]decan-1-amine] | 7.13 |  | 6.42 |
| Cc1nc(N2CCC3(CCC[C@H]3N)CC2)n2ccnc2c1-c1ccnc(N)c1Cl [Example 29, (R)-8-(8-(2-amino-3-chloropyridin-4-yl)-7-methylimidazo[1,2-c]pyrimidin-5-yl)-8-azaspiro[4.5]decan-1-amine] | 5.89 |  | 5.26 |
| C[C@@H]1OCC2(CCN(c3ncc(Sc4ccnc(N)c4Cl)c4nccn34)CC2)[C@@H]1N [Example 31, (3S,4S)-8-(8-((2-amino-3-chloropyridin-4-yl)thio)imidazo[1,2-c]pyrimidin-5-yl)-3-methyl-2-oxa-8-azaspiro[4.5]decan-4-amine] | 8.30 |  | 7.28 |
| Cc1nc(N2CCC3(CC2)C[C@@H](O)C[C@H]3N)n2ccnc2c1-c1cccc(Cl)c1Cl [Example 33, (2R,4R)-4-amino-8-(8-(2,3-dichlorophenyl)-7-methylimidazo[1,2-c]pyrimidin-5-yl)-8-azaspiro[4.5]decan-2-ol] | 8.51 |  | 7.49 |
| N[C@@H]1C[C@H](O)CC12CCN(c1ncc(Sc3cccc(Cl)c3Cl)c3nccn13)CC2 [Example 35, (2R,4R)-4-amino-8-(8-((2,3-dichlorophenyl)thio)imidazo[1,2-c]pyrimidin-5-yl)-8-azaspiro[4.5]decan-2-ol] | 8.92 |  | 7.49 |
| C[C@@H]1OCC2(CCN(c3ncc(Sc4cc(N)ncc4C(F)(F)F)c4nccn34)CC2)[C@@H]1N [Example 38, (3S,4S)-8-(8-((2-amino-5-(trifluoromethyl)pyridin-4-yl)thio)imidazo[1,2-c]pyrimidin-5-yl)-3-methyl-2-oxa-8-azaspiro[4.5]decan-4-amine] | 8.23 |  | 7.23 |
| NC1CC2CN(c3ncc(Sc4cccc(Cl)c4Cl)c4nccn34)CC2C1 (centres unmarked) [Example 40, 2-(8-((2,3-dichlorophenyl)thio)imidazo[1,2-c]pyrimidin-5-yl)octahydrocyclopenta[c]pyrrol-5-amine] | 6.72 |  | 5.49 |
| NCC1CC2CN(c3ncc(Sc4cccc(Cl)c4Cl)c4nccn34)CC2C1 (centres unmarked) [Example 41, (2-(8-((2,3-dichlorophenyl)thio)imidazo[1,2-c]pyrimidin-5-yl)octahydrocyclopenta[c]pyrrol-5-yl)methanamine] | 6.82 |  | 5.49 |
| NC[C@H]1[C@H]2CN(c3ncc(Sc4cccc(Cl)c4Cl)c4nccn34)C[C@@H]12 [Example 42, ((1R,5S,6r)-3-(8-((2,3-dichlorophenyl)thio)imidazo[1,2-c]pyrimidin-5-yl)-3-azabicyclo[3.1.0]hexan-6-yl)methanamine] | 7.10 |  | 5.89 |
| N[C@@H]1CCCC12CCN(c1ncc(Sc3cccc(Cl)c3Cl)c3nccn13)CC2 [Example 44, (R)-8-(8-((2,3-dichlorophenyl)thio)imidazo[1,2-c]pyrimidin-5-yl)-8-azaspiro[4.5]decan-1-amine] | 8.55 |  | 6.89 |
| Cc1nc(N2CCC3(CC2)Cc2cc(F)ccc2[C@H]3N)n2ccnc2c1-c1cccc(Cl)c1Cl [Example 133, (S)-1′-(8-(2,3-dichlorophenyl)-7-methylimidazo[1,2-c]pyrimidin-5-yl)-5-fluoro-1,3-dihydrospiro[indene-2,4′-piperidin]-1-amine] |  |  | 7.68 |
| Nc1cccc(Sc2cnc(N3CCC4(CC3)Cc3ccccc3[C@H]4N)n3ccnc23)c1Cl [Example 137, (S)-1′-(8-((3-amino-2-chlorophenyl)thio)imidazo[1,2-c]pyrimidin-5-yl)-1,3-dihydrospiro[indene-2,4′-piperidin]-1-amine] |  |  | 7.92 |
